Data published in US20220287998A1, “USE OF C3aR IN PREPARING DRUG FOR PREVENTING OR TREATING POLYCYSTIC KIDNEY DISEASE” (Shanghai Changzheng Hospital, priority 2021, published 2022).

How the values were obtained:
[1] = system: Han:sPRD rats and PKD1 knockout mice; conditions: cited from earlier work
[2] = system: RAW264.7 cells; assay: C3a stimulation of macrophages, RT-PCR of iNOS, TNF-α and IL-6 mRNA; format: cell-based, Murine; conditions: 24 hours
Protocol: (§1) The C3aR expression on the cell surface affected the sensitivity of downstream signals induced by C3a, so C3a-C3aR should act mainly on M1-type macrophages, which was consistent with the downstream pro-inflammatory effect. To verify the effect of C3a stimulation on the expression of M1-type macrophage inflammatory factor, RAW264.7 cells were divided into 5 groups: (1) a control group: without any stimulation; (2) a LPS group: stimulated with 100 ng/ml LPS; (3) a LPS+C3a group: stimulated with 100 ng/ml LPS+100 ng/ml C3a; (4) a IL-4 group: stimulated with 20 ng/ml IL-4; (5) a IL-4+C3a group: stimulated with 20 ng/ml IL-4+100 ng/ml C3a. After 24 hours, cell RNA was extracted, and RT-PCR was used for detecting iNOS, TNF-α and IL-6 mRNA level in each group of cells, wherein the primer sequence used by RT-PCR was as follows: iNOS primer sequence Mouse F: 5′-[…]-3′ (SEQ ID NO:9), Mouse R: 5′-[…]-3′ (SEQ ID NO:10), IL-6 primer sequence Mouse F: 5′-[…]-3′ (SEQ ID NO:11), Mouse R: 5′-[…]-3′ (SEQ ID NO:12), TNF-α primer sequence Mouse F: 5′-GGCATGGATCTCAAAGACA-3′ (SEQ ID NO:13), Mouse R: 5′-TGGGCTCATACCAGGGTT-3′ (SEQ ID NO:14).

[3] = system: RAW264.7 cells; assay: TNF-α level in macrophage culture supernatants by Elisa; format: cell-based, Murine; conditions: culture supernatant, after C3a stimulation
Protocol: as §1
The TNF-α level in the culture supernatants of macrophages from different treatment groups were detected by Elisa. […]

[4] = system: RAW264.7 cells; assay: C3a stimulation of macrophages, Western blot of p-Akt, p-ERK, p-P65, p-STAT1 and TNF-α; format: cell-based, Murine; conditions: 24 hours
Protocol: In order to explore the mechanism of pro-inflammatory effects of C3a-C3aR on M1-type macrophages, RAW264.7 cells were divided into 4 groups with LPS as a stimulation factor and C3a as an intervention factor: (1) a control group (without any stimulation); (2) a C3a (100 ng/ml) stimulation group; (3) a LPS (100 ng/ml) stimulation group; (4) a C3a (100 ng/ml)+LPS (100 ng/ml) stimulation group. After 24 hours, cell proteins in each group were extracted, and Western blot was used for detecting the expression of p-Akt, p-ERK, p-P65, p-STAT1 and TNF-α. […] Akt and ERK may regulate the apoptosis and proliferation of M1-type macrophages, while NF-κB and STAT1 was an important signaling pathway for polarization and related inflammation of M1-type macrophage. Therefore, it is speculated that C3a-C3aR may promote the activation of Akt, ERK, STAT1 and NF-κB pathway in M1-type macrophages, and then promote the secretion of TNF-α inflammatory factors by M1-type macrophages.

[5] = system: mouse cyst epithelial cells; assay: Ki67 immunohistochemical staining of kidney slices, proliferation of cyst epithelial cells; format: in vivo, mice; conditions: treatment group versus model control group
Protocol: In order to explore whether the proliferation of mouse cyst epithelial cells was restricted after treatment, immunohistochemical staining for Ki67 was performed on kidney slices of each group of mice, wherein Ki67 was a nuclear protein that could reflect the cell proliferation level.

[6] = system: Pkd1 knockout mouse; assay: Apoptosis of cyst cells in Pkd1 knockout mouse; format: in vivo
[7] = system: Pkd1 knockout mice; assay: Effect of C3aR inhibitor SB290157 on cyst indexes and kidney function of Pkd1 knockout mice; format: in vivo
Source text: Experimental animals: the animals used in this experiment were PKD1^flox/flox-Tamoxifen-Cre mice, gifted by professor Wüthrich RP, University of Zurich, Switzerland, and were bred in Specific Pathogen Free (SPF) Laboratory Animal Center of Naval Medical University [License No: SYXK (Shanghai): 2017-0004].
The blood creatinine, urea nitrogen, kidney/body weight, and cyst index of each group of mice were compared.
The main reagents used were a C3aR inhibitor (Calbiochem, SB290157, Germany), Creatinine Assay Kit (Nanjing Jiancheng Bioengineering Institute), Urea Nitrogen Assay Kit (Nanjing Institute of Built Bioengineering), and dimethyl sulfoxide (DMSO) (Amresco, 1963C070, USA).
Serum creatinine (μmol/L)=[(Sample A2-K*Sample A1)−(Blank A2-K*Blank A1)]/[(Standard A2-K*Standard A1)−(Blank A2-K*Blank A1)]*Standard Concentration; Formula:
Urea nitrogen (mmol/L)=(Assay OD−Blank OD)/(Standard OD−blank OD)*Standard Concentration (10 mmol/L)*Dilution multiple;
After HE staining, scanning was performed with a whole slide image scanner, and pictures were exported and saved using CaseViewer software. The total pixel value of the whole kidney in Photoshop software was calculated as A1, a cyst area was selected and calculated the total pixel value as A2, wherein the ratio of A2 to A1 is the cyst index.

[8] = system: Pkd1 conditional knockout mice; assay: F4/80 immunofluorescence staining, macrophage infiltration in kidney tissue of Pkd1 conditional knockout mice; format: in vivo; conditions: 1 mg/kg i.p. once a day; treatment group versus model control group
Source text: F4/80 in the kidney tissues of the wild group, the model control group and the SB290157 treatment group were stained by immunofluorescence to compare the macrophage infiltration.

[9] = system: ADPKD-related pathway protein; assay: Western blot of ADPKD-related signaling pathway proteins in kidney tissue; format: in vivo, mice
Source text: In order to further explore the therapeutic mechanism of SB290157 on polycystic kidney mice, the expression of ADPKD-related pathway protein was detected by Western blot.

[10] = M1-type macrophages (100 ng/ml LPS) + 100 ng/ml C3a
[11] = M1-type macrophages, C3a 100 ng/ml + LPS 100 ng/ml
[12] = treatment group compared with model control group
[13] = treatment group compared to model control group

[Cl][Co][Cl] [cobalt chloride]
growth of kidney cysts [1]: inhibit
infiltration of kidney interstitial macrophages [1]: significantly reduce
kidney function [1]: improve

C3a: produced by activation of complement C3; promotes inflammatory cell infiltration; used at 100 ng/ml to stimulate macrophages
pro-inflammatory effect on M2-type macrophages ([2]; 20 ng/ml IL-4 + 100 ng/ml C3a): no significant pro-inflammatory effect
IL-6 mRNA level [2, 10]: remarkably up-regulated
TNF-alpha mRNA level [2, 10]: remarkably up-regulated
iNOS mRNA level ([2]; M1-type macrophages (100 ng/ml LPS) + 100 ng/ml C3a, versus LPS group): up-regulated
TNF-α level secreted by M1-type macrophages [3]: further increased
stimulatory effect on M0-type macrophages (p-Akt, p-ERK, p-P65, p-STAT1, TNF-α) ([4]; C3a 100 ng/ml alone): not significant
expression of TNF-α protein [4, 11]: further up-regulated
expression of p-Akt protein [4, 11]: further up-regulated
expression of p-ERK protein [4, 11]: further up-regulated
expression of p-P65 protein [4, 11]: further up-regulated
expression of p-STAT1 protein [4, 11]: further up-regulated

N=C(N)NCCCC(NC(=O)COCC(c1ccccc1)c1ccccc1)C(=O)O (stereo not drawn) [SB290157]
number of kidney Ki67 positive staining cells [5]: significantly lower
apoptosis [6]: increasing
double kidney weight/body weight ratio (2KW/BW) ([7]; Pkd1 knockout mice, 1 mg/kg i.p. once a day, day 28, model control 0.112±0.006, wild 0.012±0.000): 0.043±0.007
blood urea nitrogen ([7]; Pkd1 knockout mice, 1 mg/kg i.p. once a day, day 28, model control 80.4±6.0, wild 6.8±0.7): 26.3 ± 6.5 mmol/L
serum creatinine ([7]; Pkd1 knockout mice, 1 mg/kg i.p. once a day, day 28, model control 90.0±3.6, wild 13.0±1.2 μmol/L): 29.3±3.4 μm
cyst index ([7]; Pkd1 knockout mice, 1 mg/kg intraperitoneal once a day from postnatal day 12, sacrificed day 28, model control 49.9±1.9%): 35.3±1.9%
cyst area (HE staining) [7, 12]: reduction
kidney volume [7, 12]: reduced
positive rate of F4/80 in the kidney tissue (macrophage infiltration) [8]: significantly lower
C3aR level [9]: reduced
expression of p-Akt protein [9, 13]: down-regulated
expression of p-ERK protein [9, 13]: down-regulated
expression of p-P65 protein [9, 13]: down-regulated

O=C(/C=C/c1ccc(O)c(O)c1)O[C@H](Cc1ccc(O)c(O)c1)C(=O)O [rosmarinic acid]
growth of kidney cysts [1]: inhibit
infiltration of kidney interstitial macrophages [1]: significantly reduce
kidney function [1]: improve
